Reference: ChEMBL document CHEMBL3991601, “The target landscape of clinical kinase drugs” (Science, 2017)
Calls of active or inactive are those of the source.

Columns and labels:
[1] = molecular target: T1, RNA cytidine acetyltransferase (Homo sapiens, UniProt Q9H0A0)
T1 sequence (Q9H0A0 whole entry): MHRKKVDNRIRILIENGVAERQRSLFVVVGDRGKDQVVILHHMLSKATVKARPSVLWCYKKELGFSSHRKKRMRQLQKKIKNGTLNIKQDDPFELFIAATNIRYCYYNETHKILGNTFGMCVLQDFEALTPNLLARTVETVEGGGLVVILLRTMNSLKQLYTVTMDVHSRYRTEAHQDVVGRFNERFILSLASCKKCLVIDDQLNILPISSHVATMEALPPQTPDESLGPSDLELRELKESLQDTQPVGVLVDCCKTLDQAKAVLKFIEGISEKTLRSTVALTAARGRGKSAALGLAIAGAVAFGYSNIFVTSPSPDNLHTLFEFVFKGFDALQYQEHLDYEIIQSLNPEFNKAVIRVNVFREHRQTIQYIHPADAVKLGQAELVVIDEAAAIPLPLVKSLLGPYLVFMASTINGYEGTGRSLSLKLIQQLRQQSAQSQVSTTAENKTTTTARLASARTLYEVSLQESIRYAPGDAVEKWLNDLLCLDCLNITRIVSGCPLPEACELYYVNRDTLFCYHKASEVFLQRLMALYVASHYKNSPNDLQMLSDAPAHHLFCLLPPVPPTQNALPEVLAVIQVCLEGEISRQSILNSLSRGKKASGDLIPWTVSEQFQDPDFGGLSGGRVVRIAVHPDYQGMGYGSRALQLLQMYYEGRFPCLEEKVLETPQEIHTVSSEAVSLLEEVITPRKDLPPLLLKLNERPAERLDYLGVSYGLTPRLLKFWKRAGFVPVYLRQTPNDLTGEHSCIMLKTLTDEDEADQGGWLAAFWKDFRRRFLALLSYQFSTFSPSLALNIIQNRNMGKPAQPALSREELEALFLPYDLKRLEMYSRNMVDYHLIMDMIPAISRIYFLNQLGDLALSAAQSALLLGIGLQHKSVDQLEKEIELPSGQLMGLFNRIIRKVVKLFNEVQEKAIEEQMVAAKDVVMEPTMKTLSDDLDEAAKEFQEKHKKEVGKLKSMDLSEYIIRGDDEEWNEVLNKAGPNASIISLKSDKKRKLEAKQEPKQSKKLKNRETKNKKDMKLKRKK

[2] = molecular target: T2, Serine/threonine-protein kinase ICK (Homo sapiens, UniProt Q9UPZ9)
T2 sequence (Q9UPZ9 whole entry): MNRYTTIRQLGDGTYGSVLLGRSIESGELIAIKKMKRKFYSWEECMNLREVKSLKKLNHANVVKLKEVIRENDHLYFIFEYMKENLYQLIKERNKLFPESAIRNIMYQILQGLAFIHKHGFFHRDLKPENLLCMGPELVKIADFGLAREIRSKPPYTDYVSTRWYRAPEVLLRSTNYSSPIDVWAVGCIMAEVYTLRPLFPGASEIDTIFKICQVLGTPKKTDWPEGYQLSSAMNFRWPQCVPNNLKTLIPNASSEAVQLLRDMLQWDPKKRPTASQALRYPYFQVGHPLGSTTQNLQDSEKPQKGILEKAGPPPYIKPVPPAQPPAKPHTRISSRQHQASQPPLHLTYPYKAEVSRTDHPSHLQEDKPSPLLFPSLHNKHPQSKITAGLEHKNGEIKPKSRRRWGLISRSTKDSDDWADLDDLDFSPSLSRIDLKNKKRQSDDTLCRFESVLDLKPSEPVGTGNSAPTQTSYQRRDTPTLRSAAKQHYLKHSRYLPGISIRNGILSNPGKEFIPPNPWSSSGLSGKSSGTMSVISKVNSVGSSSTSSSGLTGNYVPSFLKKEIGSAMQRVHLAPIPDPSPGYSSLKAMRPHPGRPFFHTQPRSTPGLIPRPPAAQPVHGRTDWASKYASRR

[3] = molecular target: T3, ATP-dependent RNA helicase DDX42 (Homo sapiens, UniProt Q86XP3)
T3 sequence (Q86XP3 whole entry): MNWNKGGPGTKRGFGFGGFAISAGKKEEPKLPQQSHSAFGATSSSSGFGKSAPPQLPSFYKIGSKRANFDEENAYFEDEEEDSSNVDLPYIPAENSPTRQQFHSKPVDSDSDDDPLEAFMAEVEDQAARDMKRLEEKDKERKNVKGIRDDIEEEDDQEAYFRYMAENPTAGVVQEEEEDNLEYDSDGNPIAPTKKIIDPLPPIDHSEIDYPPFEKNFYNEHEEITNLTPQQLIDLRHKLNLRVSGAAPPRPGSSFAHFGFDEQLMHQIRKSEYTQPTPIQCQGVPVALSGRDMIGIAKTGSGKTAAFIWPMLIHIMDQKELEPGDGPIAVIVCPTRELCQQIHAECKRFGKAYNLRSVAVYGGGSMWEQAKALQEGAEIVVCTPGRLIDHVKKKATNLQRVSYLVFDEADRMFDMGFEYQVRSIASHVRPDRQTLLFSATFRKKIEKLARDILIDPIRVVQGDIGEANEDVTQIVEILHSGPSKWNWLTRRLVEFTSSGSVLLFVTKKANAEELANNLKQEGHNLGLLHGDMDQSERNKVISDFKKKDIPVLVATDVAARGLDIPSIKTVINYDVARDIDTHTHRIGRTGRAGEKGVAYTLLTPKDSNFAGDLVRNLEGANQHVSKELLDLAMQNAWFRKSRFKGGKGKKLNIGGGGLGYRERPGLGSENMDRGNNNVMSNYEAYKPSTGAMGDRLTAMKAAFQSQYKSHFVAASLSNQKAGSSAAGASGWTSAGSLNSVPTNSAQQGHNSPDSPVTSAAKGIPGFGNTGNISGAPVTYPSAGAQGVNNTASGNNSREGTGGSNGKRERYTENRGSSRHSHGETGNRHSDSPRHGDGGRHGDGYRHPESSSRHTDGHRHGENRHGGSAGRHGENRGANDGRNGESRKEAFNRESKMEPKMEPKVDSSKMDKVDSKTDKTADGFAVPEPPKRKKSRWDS

[4] = molecular target: Cyclin-dependent kinase 3 (Homo sapiens, UniProt Q00526)
Also: in the data inactive means no Kd found up to 30 µM.

Cyclin-dependent kinase 3, sequence (Q00526 whole entry): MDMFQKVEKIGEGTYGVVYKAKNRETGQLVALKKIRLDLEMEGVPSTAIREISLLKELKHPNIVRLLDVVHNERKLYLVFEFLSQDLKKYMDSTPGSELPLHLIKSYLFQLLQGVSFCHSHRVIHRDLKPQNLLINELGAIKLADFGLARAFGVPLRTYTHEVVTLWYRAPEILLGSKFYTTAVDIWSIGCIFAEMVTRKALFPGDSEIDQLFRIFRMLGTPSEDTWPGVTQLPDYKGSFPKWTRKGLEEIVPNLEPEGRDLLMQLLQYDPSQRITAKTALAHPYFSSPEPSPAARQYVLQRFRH

| Kd [1] | Kd [2] | Kd [3] | Kd [4] | Compound |
| --- | --- | --- | --- | --- |
| > 30 µM (inactive) | > 30 µM (inactive) | > 30 µM (inactive) | > 30 µM (inactive) | CO[C@H]1C[C@@H]2CC[C@@H](C)[C@@](O)(O2)C(=O)C(=O)N2CCCC[C@H]2C(=O)O[C@H]([C@H](C)C[C@@H]2CC[C@@H](OC(=O)C(C)(CO)CO)[C@H](OC)C2)CC(=O)[C@H](C)/C=C(\C)[C@@H](O)[C@@H](OC)C(=O)[C@H](C)C[C@H](C)/C=C/C=C/C=C/1C [TEMSIROLIMUS] |
| > 30 µM (inactive) | > 30 µM (inactive) | > 30 µM (inactive) | > 30 µM (inactive) | O=C(Cc1ccc(-c2ccc(OCCN3CCOCC3)cc2)cn1)NCc1ccccc1 [TIRBANIBULIN] |
| > 30 µM (inactive) | > 30 µM (inactive) | > 30 µM (inactive) | > 30 µM (inactive) | O=C1NC(=O)[C@@H](c2cn3c4c(cccc24)CCC3)[C@@H]1c1c[nH]c2ccccc12 [TIVANTINIB] |
| > 30 µM (inactive) | > 30 µM (inactive) | > 30 µM (inactive) | > 30 µM (inactive) | C[C@@H](N)c1ccc(C(=O)Nc2ccnc3[nH]ccc23)cc1 [Y-39983] |
| > 30 µM (inactive) | > 30 µM (inactive) | > 30 µM (inactive) | > 30 µM (inactive) | CN1C/C=C/CCOc2cccc(c2)-c2ccnc(n2)Nc2cccc(c2)C1 [ZOTIRACICLIB] |

Second part, the molecule before the results:

| Compound | Kd [1] | Kd [2] | Kd [3] | Kd [4] |
| --- | --- | --- | --- | --- |
| CN1CCN(CCOc2cc(OC3CCOCC3)c3c(Nc4c(Cl)ccc5c4OCO5)ncnc3c2)CC1 [SARACATINIB] | > 30 µM (inactive) | > 30 µM (inactive) | > 30 µM (inactive) | > 30 µM (inactive) |
| Cn1cc(-c2cnn3c(N)c(Br)c([C@@H]4CCCNC4)nc23)cn1 [SCH-900776] | > 30 µM (inactive) | > 30 µM (inactive) | > 30 µM (inactive) | > 30 µM (inactive) |
| CCS(=O)(=O)c1cccc(-c2cc(C(=O)NC3CCN(C)CC3)c(C)c3[nH]c4ncc(C)cc4c23)c1 [TAK-901] | > 30 µM (inactive) | > 30 µM (inactive) | > 30 µM (inactive) | > 30 µM (inactive) |
| COc1cc2c(Nc3ccc(Cl)c(Cl)c3F)ncnc2cc1OC[C@@H]1C[C@@H]2CN(C)C[C@@H]2C1 [TESEVATINIB] | > 30 µM (inactive) | > 30 µM (inactive) | > 30 µM (inactive) | > 30 µM (inactive) |
| C[C@@H](NC(=O)c1ncnc(N)c1Cl)c1ncc(C(=O)Nc2cc(C(F)(F)F)c(Cl)cn2)s1 [TOVORAFENIB] | > 30 µM (inactive) | > 30 µM (inactive) | > 30 µM (inactive) | > 30 µM (inactive) |
| Cc1cc(Nc2ncnc3ccc(NC4=NC(C)(C)CO4)cc23)ccc1Oc1ccn2ncnc2c1 [TUCATINIB] | > 30 µM (inactive) | > 30 µM (inactive) | > 30 µM (inactive) | > 30 µM (inactive) |
